Reference: PubChem BioAssay (NCI)
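A five-concentration, 48-hour dose response in 96-well plates underlies each endpoint, interpolated linearly between surrounding concentrations. The concentration for full growth arrest is given as TGI.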 Where a SMILES comes first, the peptide text is derived from it. [ ]: non-standard residue; d: D form.

How the values were obtained:
Assay in all cases: NCI tumour cell line growth inhibition, 48 h
[1] = system: SK-OV-3 ovarian
[2] = system: OVCAR-3 ovarian
[3] = system: MALME-3M melanoma
[4] = system: M19-MEL melanoma
[5] = system: OVCAR-8 ovarian
[6] = system: KM20L2 colon
[7] = system: HCT-15 colon
[8] = system: SF-295 CNS
[9] = system: MOLT-4 leukemia
[10] = system: OVCAR-4 ovarian
[11] = system: HCT-116 colon
[12] = system: DLD-1 colon
[13] = system: EKVX NSCLC
[14] = system: OVCAR-5 ovarian
[15] = system: LOX IMVI melanoma
[16] = system: KM12 colon
[17] = system: NCI-H460 lung
[18] = system: A498 renal
[19] = system: MCF7 breast
[20] = system: SNB-19 CNS
[21] = system: IGROV1 ovarian
[22] = system: NCI-H23 lung
[23] = system: SK-MEL-2 melanoma
[24] = system: CCRF-CEM leukemia
[25] = system: SN12K1 renal
[26] = system: SNB-78 CNS
[27] = system: A549 NSCLC
[28] = system: UO-31 renal
[29] = system: U251 CNS
[30] = system: NCI-H226 lung
[31] = system: UACC-257 melanoma
[32] = system: SN12C renal
[33] = system: P388/ADR leukemia
[34] = system: HOP-18 NSCLC
[35] = system: HT29 colon
[36] = system: SK-MEL-28 melanoma
[37] = system: RPMI-8226 leukemia
[38] = system: COLO 205 colon
[39] = system: HCC-2998 colon
[40] = system: K-562 leukemia
[41] = system: HL-60(TB) leukemia
[42] = system: DMS 273 small cell lung
[43] = system: SK-MEL-5 melanoma
[44] = system: P388 leukemia
[45] = system: HOP-92 NSCLC
[46] = system: SF-539 CNS
[47] = system: XF 498 CNS
[48] = system: HOP-62 NSCLC
[49] = system: SNB-75 CNS
[50] = system: SF-268 CNS
[51] = system: NCI-H522 lung
[52] = system: UACC-62 melanoma
[53] = system: SW-620 colon
[54] = system: NCI/ADR-RES ovarian
[55] = system: RXF 393 renal
[56] = system: LXFL 529 NSCLC
[57] = system: DMS 114 small cell lung
[58] = system: M14 melanoma
[59] = system: TK-10 renal
[60] = system: 786-0 renal
[61] = system: SR leukemia
[62] = system: ACHN renal
[63] = system: RXF-631 renal

Measured: TGI

CC(C)C[C@H](NC(=O)[C@H](CC(C)C)NC(=O)[C@@H](Cc1c[nH]c2ccccc12)NC(=O)[C@H](Cc1ccccc1)NC(=O)[C@@H](Cc1c[nH]c2ccccc12)NC(=O)[C@H](CCC(N)=O)NC(=O)[C@H](CCC(N)=O)NC(=O)[C@H]1CCCN1C(=O)[C@@H](N)CCCCN)C(N)=O (H-K[dP]QQ[dW]F[dW]LL-NH2)
not listed: [56] | [57] | [58] | [59] | [60] | [61] | [62] | [63]
> 100 µM: all other assays above

O=S(=O)(/C=C/CS(=O)(=O)c1ccccc1)c1ccccc1
84.7 µM: [2]
36.4 µM: [61]
93.6 µM: [8]
62.6 µM: [47]
88 µM: [32]
52.8 µM: [63]
74 µM: [9]
61.9 µM: [30]
67.3 µM: [58]
43.6 µM: [46]
32.5 µM: [5]
37.9 µM: [41]
45.6 µM: [7]
52 µM: [57]
52.2 µM: [52]
32.3 µM: [16]
95.7 µM: [37]
74.2 µM: [6]
45.7 µM: [53]
50 µM: [22]
87 µM: [1] | [31]
63.9 µM: [17]
57.1 µM: [11] | [39]
82.3 µM: [18]
29.3 µM: [23]
89.9 µM: [26]
98.4 µM: [40]
55.6 µM: [60]
57.4 µM: [15]
60.8 µM: [27]
77.5 µM: [29]
46.2 µM: [48]
not listed: [19] | [25] | [33] | [44] | [51] | [54]
> 100 µM: all other assays above
